Assay results reported in patent US6482859B1, “Microbicidal N-sulfonylglycin alkynyloxyphenethyl amide derivatives” (priority 1997, dated 2002).

CCCS(=O)(=O)N[C@H](C(=O)NCCc1ccc(OCC#Cc2ccc(Cl)cc2)c(OC)c1)C(C)C [Compound 1.204, (S)-2-(Propylsulfonyl-amino)-3-methyl-butyric acid N-[2-{3-methoxy-4-(3-(4-chlorophenyl)-2-propyn-1-yloxy)-phenyl}-ethyl]-amide]
melting point: 131 to 133 °C
